The subject of one test is tumor-MDSC. Put plainly: Ex vivo suppression assay: tumor-MDSC co-cultured with primed CFSE-labeled T cells. The test is classed as cell-based, mice. Particulars: tumor-MDSC (1:1/4) from B16-bearing mice; AMG-44 12 mg/kg. The method, then: CD3^+ T cells were enriched using mouse or human T cell negative selection kits (MagniSort, Invitrogen) from the spleen and lymph nodes of C57BL/6 mice; or from purchased human buffy-coat units (One-Blood, Tampa, Fla.). Purity ranged between 95% and 99% as tested by flow cytometry. For antigen-specific priming studies, CD8^+ T cells were enriched using negative selection kits from the spleens of OT-I mice previously activated with OVA257-264 (SIINFEKL) for 48 hours. Tumor-MDSC were isolated from cellular suspensions of digested tumors followed by positive selection (MojoSort Streptavidin Nanobeads, Biolegend) using anti-Gr1 (Clone RB6-8C5, eBioscience) or anti-CD11b-biotinylated antibodies (Clone M1/70, StemCell Technologies, Vancouver). Also, M-MDSC (CD11b^+Gr1^+Ly6G^lowLy6C^high), PMN-MDSC (CD11b^+Gr1^+Ly6G^+Ly6C^low), macrophages (CD11b^+Gr1^negF4/80^+CD11c^neg), and myeloid DCs (CD11b^+Gr1^negF4/80^negCD11c^+) were sorted from tumors in a FACSAriaII (BD Biosciences).
Murine BM-MDSC (ratio 1:1/8) or tumor-MDSC (ratio 1:1/4) were co-cultured with negatively selected CD3^+ T cells in a 96 well plate bound α-CD3 and α-CD28 (1 μg/ml each, eBioscience) for 3 days. T cell proliferation was assessed with Carboxyfluorescein succinimidyl ester (CFSE) or Cell-trace violet (Invitrogen) dye dilution detected by flow cytometry. For human studies, MDSC were co-cultured with enriched CD3^+ T cells activated with soluble α-CD3 (1 μg/ml, clone OKT3) and α-CD28 (0.5 μg/ml, clone L293) for 3 days in a 96 well plate bound with goat anti-mouse IgG (10 μg/ml). Results are expressed as percentage of proliferating T cells, determined by the dilution of fluorescence compared with non-stimulated T cells.

The next test concerns B16 tumors. The experiment in a line: s.c. B16 melanoma tumor model in mice. In kind it is in vivo.
The next test has as its system human FSH-CER T cells. The experiment in a line: Expansion of IL-2-supplemented human FSH-CER T cells with ER stress inhibitors. In kind it is cell-based. Particulars: treatment for 5 days. The method, then:
The role of the PERK-Chop in the expansion of tumor TRM cells using conditional T cell Chop-null mice was evaluated. In agreement with the inhibitory effect of Chop in TRM development, higher frequency of TRM cells was detected in tumors from T cell-Chop^KO mice compared to controls (FIG. 23A). Next, we tested the effect of the inhibition of PERK (AMG-44) and IRE 1α (MKC8866) during the expansion of IL-2-supplemented human FSH-CER T cells. […] Also, we evaluated the therapeutic effect of the combination of ER stress-targeting therapy and FSH-CER. Thus, mice bearing FSHR+-ID8-Defb29/Vegfa ovarian tumors for 7 days received daily treatments with MKC8866 (i.p., 300 mg/kg) or AMG-44 (i.p. 12 mg/kg) for one-week, and i.p. transfer of FSH-CER T cells at days 7 and 14 post-tumor challenge. […] We postulate that treatments for longer time periods with ER stress inhibitors will further potentiate the effect of FSH-CER T cells

Molecules are shown by their SMILES.

`Cc1ccc2cc(-c3c(C)ccc(C(=O)c4c(-c5ccccc5)n(C)n(-c5ccccc5)c4=O)c3N)ccc2n1` [AMG-44]: the “immunoinhibitory activity of tumor-MDSC” value with tumor-MDSC is reported as “impaired the immunoinhibitory activity of tumor-MDSC”. Also, the “combination with anti-PD-L1 immunotherapy” value in the test with B16 tumors (B16-bearing mice, AMG-44 12 mg/kg plus 250 μg anti-PD-L1 every 3rd day) is listed as “synergized with anti-PD-L1 immunotherapy”. The “therapeutic anti-tumor action in Eif2ak3^KO-Lyz2 mice” value in the test on B16 tumors (B16, AMG-44 12 mg/kg) is reported as “not in Eif2ak3^KO-Lyz2 counterparts”. For the same compound, in the test with B16 tumors (B16, AMG-44 12 mg/kg, Eif2ak3^Flox mice), the “therapeutic anti-tumor action in PERK-competent mice” value was “detected in PERK-competent mice”. Also, the tumor growth result in the test with B16 tumors (B16, daily i.p. GSK2606414 25 mg/kg or AMG-44 12 mg/kg from day 7) is “delayed tumor growth”. For the same compound, the “frequency of FSH-CER TRM cells” value with human FSH-CER T cells is reported as “Higher frequency of FSH-CER TRM cells”.

The values above are taken from patent US20230107770A1, “METHOD OF ENHANCING IMMUNOTHERAPY USING ER STRESS PATHWAY INHIBITORS” (H. LEE MOFFITT CANCER CENTER AND RESEARCH INSTITUTE, INC., priority 2020, published 2023).
